Test results reported in patent US8563599B2, “Methods for synthesizing glycinols, glyceollins I and II, compositions of selected intermediates, and therapeutic uses thereof” (The United States of America, represented by the Secretary …, priority 2008, dated 2013).

Experiments:
[1] = molecular target: T1, hrER-α (alpha estrogen receptor) (Homo sapiens, UniProt P03372); assay: ER-α competition binding assay (fluorescence anisotropy, ES2 displacement); settings: ERα/ES2 complex, 2 h room temperature, FIG. 9; read-out: IC50 for 50% inhibition of a standard's binding with the alpha estrogen receptor (ER-α)
T1 sequence (P03372 1-595): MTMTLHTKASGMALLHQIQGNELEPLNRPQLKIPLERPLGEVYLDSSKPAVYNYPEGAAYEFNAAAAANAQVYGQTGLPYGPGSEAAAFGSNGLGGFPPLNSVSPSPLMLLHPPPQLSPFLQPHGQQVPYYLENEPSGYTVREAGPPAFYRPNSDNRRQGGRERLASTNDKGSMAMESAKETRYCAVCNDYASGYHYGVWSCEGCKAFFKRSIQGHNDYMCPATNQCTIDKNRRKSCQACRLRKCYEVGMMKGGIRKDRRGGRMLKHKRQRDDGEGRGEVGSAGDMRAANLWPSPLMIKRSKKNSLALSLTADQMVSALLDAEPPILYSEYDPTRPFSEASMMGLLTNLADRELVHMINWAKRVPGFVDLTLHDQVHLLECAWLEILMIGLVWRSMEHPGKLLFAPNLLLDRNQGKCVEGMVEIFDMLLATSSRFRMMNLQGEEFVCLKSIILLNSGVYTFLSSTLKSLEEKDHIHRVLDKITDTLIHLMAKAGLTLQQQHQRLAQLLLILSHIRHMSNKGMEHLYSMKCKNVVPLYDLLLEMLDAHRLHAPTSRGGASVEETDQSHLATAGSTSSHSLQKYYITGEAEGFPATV
Method: This example illustrates how the biological data pertaining to interaction of the compounds with the alpha-estrogen receptors was obtained.
A 200 μM working stock solution of GLY I was prepared from an original 10 mM DMSO stock solution. The working stock solution was serially diluted in triplicate in screening buffer to the desired concentrations. hrER-α and ES2 were added to a final concentration of 2 nM and 3 nM, respectively. Negative (ER+ES2, equivalent to 0% inhibition) and positive (free ES2, equivalent to 100% inhibition) controls in the absence of competitor were measured in duplicate. After 2 h at room temperature, the anisotropy values in each tube were measured using the Beacon 2000 system CO. The anisotropy values were converted to percent inhibition using the following formula: I%=(A0−A)/(A0−A100)×100, where I% is the percent inhibition, A0 is 0% inhibition, A100 is 100% inhibition, and A represents the observed value. Polarization values were converted to percent inhibition to make the data more intuitive to the reader and to normalize the day-to-day differences in the starting 0% inhibition polarization values. The percent inhibition versus competitor concentration curves were analyzed by nonlinear least-squares curve fitting and yielded an IC50 value (the concentration of competitor needed to displace half of the bound ligand). To compare binding affinities of the test compounds to those reported in the literature, IC50 values were converted to relative binding affinities (RBA) using E2 as a standard. The E2 RBA was set equal to 100 […].

[2] = test system: estrogen receptor (ERE-luciferase) in MCF7 ER-positive cells; assay: ERE-Luciferase assay, estrogenic and antiestrogenic activity; type: cell-based, human
Method: Cell Culture Studies (MCF7 ER-Positive Cells)
Human cancer cell lines derived from breast (MCF7, ER-positive cells) were cultured in 75 ml culture flasks in DMEM (Invitrogen, Co.) supplemented with 10% FBS (Life Technologies, Inc., Gaithersburg, Md.), basic minimum MEM essential (50×, Invitrogen Co.) and MEM non-essential (100×, Invitrogen, Co.) amino acids, sodium pyruvate (100× Invitrogen Co.), antimicotic-antibiotic (10,000 U/mL penicillin G sodium; 10,000 μg/mL streptomycin sulphate; 25 μg/mL amphotericin B as Fungizone®), and human recombinant insulin (4 mg/mL. Invitrogen Co.). The culture flasks were maintained in a tissue culture incubator in a humidified atmosphere of 5% CO2 and 95% air at 37° C. For estrogen studies, cells were washed with PBS 3 times and grown in phenol red-free DMEM supplemented with 5% dextran-coated charcoal-treated FBS (5% CS-FBS) for 72 h before plating for each particular experiment.
Results were then assessed by using an ERE-luciferase assay. The cells were plated in 24 well plates at 5×10^5 cells/well in the same media and allowed to attach overnight. After 18 hours, cells were transfected for 5 h in serum supplemented-free DMEM with […] pGL2-ERE2X-TK-luciferase plasmid, using 6 μl of effectine (Qiagen)/μg of DNA. After 5 h the transfection medium was removed and replaced with phenol red-free DMEM supplemented with 5% CS-FBS containing vehicle, 17β-estradiol, GLY I, or 17β-estradiol plus GLY I, and incubated at 37° C. After 18 h the medium was removed, and 100 μl of lysis buffer was added per well and then incubated for 15 min at room temperature. Cell debris was pelleted by centrifugation at 15000×g for 5 min. cell extracts were normalized for protein concentration using reagent according to the protocol supplied by the manufacturer (Bio-Rad Laboratories, Inc., Hercules, Calif.). Luciferase activity for the cell extracts was determined using Luciferase substrate (Promega Corp.) in an Autoluminat Plus luminometer.

[3] = pH stability study by HPLC; type: physicochemical
From the text: This instability could derive by formation of a quinone-methide from the now unprotected ‘Southern’ ring's phenolic hydroxyl-group. Thus, mildly acidic reagents that might be used for de-protection were explored. In the end, NEt3.3 HF (see, e.g., L. D. Julian, J. S. Newcom, W. R. Roush, J. Am. Chem. Soc. 2005, 127, 6186-6187, which is hereby incorporated by reference in its entirety), which provides a pH in the range of 4-5 when run on the 0.1 mmole scale in anhydrous acetonitrile, was most successfully utilized for this transformation. Even with this approach, however, it is important to adjust the pH of the post-reaction medium (as readily followed by TLC) to pH 7-8 by addition of triethylamine so as to avoid decomposition during subsequent workup. Final compounds are obtained in the range of ca. 65-70% yields. Assignment of stereochemistry for these final materials can be accomplished with NMR and CD. In addition, at this point it is convenient to take advantage of chiral HPLC wherein authentic materials from natural sources can be used as standards along with the synthesized racemic materials.

- IC50 [1]: 1400 nM
- stability of ring system (HPLC) ([3]; acidic pH as low as 4): reasonable stability
- stability of ring system (HPLC) ([3]; basic pH above 8): not stable
SMILES: CC1(C)C=Cc2c(ccc3c2OCC2(O)c4ccc(O)cc4OC32)O1 (racemic) [racemic (±)-GLY I, (+) Glyceollin I (Racemic Glyceollin I)]
- anti-estrogenic activity (ERE-Luciferase) ([2]; at 10 μM, E2 at 100 pM): strong anti-estrogenic activity
- estrogenic activity (ERE-Luciferase) ([2]; concentration not given): no significant estrogenic activity
